The values below come from patent US12209087B2, “AKT1 modulators” (Alterome Therapeutics, Inc., priority 2022, dated 2025).

The target of this assay is T1, full length AKT E17K (Homo sapiens, UniProt P31749, E17K).
T1 construct: host or cells: HEK-293 (ATCC CRL-1573)
T1 sequence (P31749 whole entry E17K): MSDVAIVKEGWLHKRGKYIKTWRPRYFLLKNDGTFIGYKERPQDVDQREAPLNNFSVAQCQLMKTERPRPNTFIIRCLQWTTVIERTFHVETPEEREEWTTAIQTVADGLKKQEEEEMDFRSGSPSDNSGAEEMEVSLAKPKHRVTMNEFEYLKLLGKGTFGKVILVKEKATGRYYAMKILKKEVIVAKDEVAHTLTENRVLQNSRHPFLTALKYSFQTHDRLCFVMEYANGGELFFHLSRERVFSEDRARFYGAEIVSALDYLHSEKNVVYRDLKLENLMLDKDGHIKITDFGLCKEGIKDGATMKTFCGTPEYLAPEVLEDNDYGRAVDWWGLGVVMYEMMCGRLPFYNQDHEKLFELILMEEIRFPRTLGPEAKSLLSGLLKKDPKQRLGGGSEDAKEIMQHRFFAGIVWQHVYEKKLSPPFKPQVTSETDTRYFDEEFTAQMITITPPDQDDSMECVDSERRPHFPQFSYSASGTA
As to the kind of experiment: NanoBRET Target Engagement (TE) Assay. In kind it is cell-based. Particulars: competitive displacement of tracer in cells, read-out: AKT1 E17K IC50. An outline of the steps:
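Compound and tracer incubated 2 h before luminescence at donor 450 nm and acceptor 600 nm, with extracellular signal inhibited. EC50 by sigmoidal variable-slope regression.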
(BRET reads energy transfer from a luciferase to a nearby fluorophore.)
In general, IC50 refers to the concentration that gives 50% inhibition. Regarding `N#Cc1nccc(NC2CCN(Cc3ccc(-n4c(-c5cccnc5)nc5ccc(-c6ccc(F)cn6)nc54)cc3)CC2)n1` [Example 575, 4-((1-(4-(5-(5-Fluoropyridin-2-yl)-2-(pyridin-3-yl)-3H-imidazo[4,5-b]pyridin-3-yl)benzyl)piperidin-4-yl)amino)pyrimidine-2-carbonitrile], the 50% inhibitory concentration (IC50) fell in the range of 60 to 600 nM. With `N#Cc1nccc(NC2CCN(Cc3ccc(-n4c(-c5ccccc5N)nc5ccc(-c6ccc(F)cn6)nc54)cc3)CC2)n1` [Example 576, 4-((1-(4-(2-(2-Aminophenyl)-5-(5-fluoropyridin-2-yl)-3H-imidazo[4,5-b]pyridin-3-yl)benzyl)piperidin-4-yl)amino)pyrimidine-2-carbonitrile] the figure was 15 to 60 nM; with `N#Cc1nccc(NC2CCN(Cc3ccc(-n4c(-c5ccccc5)nc5ccc(-c6ccc(F)cn6)nc54)cc3)CC2)n1` [Example 577, 4-((1-(4-(5-(5-Fluoropyridin-2-yl)-2-phenyl-3H-imidazo[4,5-b]pyridin-3-yl)benzyl)piperidin-4-yl)amino)pyrimidine-2-carbonitrile], 15 to 60 nM. Next, `[2H]C([2H])([2H])Oc1ccc(-c2ccc3nc(-c4cccnc4N)n(-c4ccc(CN5CCC(Nc6ccnc(C#N)n6)CC5)cc4)c3n2)nc1` [Example 578, 4-((1-(4-(2-(2-Aminopyridin-3-yl)-5-(5-(methoxy-d)pyridin-2-yl)-3H-imidazo[4,5-b]pyridin-3-yl)benzyl)piperidin-4-yl)amino)pyrimidine-2-carbonitrile]: below 15 nM; `N#Cc1nccc(NC2CCN(Cc3ccc(-n4c(-c5cccnc5N)nc5ccc(-c6ccc(OC(F)F)cn6)nc54)cc3)CC2)n1` [Example 579, 4-((1-(4-(2-(2-Aminopyridin-3-yl)-5-(5-(difluoromethoxy)pyridin-2-yl)-3H-imidazo[4,5-b]pyridin-3-yl)benzyl)piperidin-4-yl)amino)pyrimidine-2-carbonitrile]: below 15 nM. Next, `N#Cc1nccc(NC2CCN(Cc3ccc(-n4c(-c5cccnc5N)nc5ccc(-c6ccc(OCF)cn6)nc54)cc3)CC2)n1` [Example 580, 4-((1-(4-(2-(2-Aminopyridin-3-yl)-5-(5-(fluoromethoxy)pyridin-2-yl)-3H-imidazo[4,5-b]pyridin-3-yl)benzyl)piperidin-4-yl)amino)pyrimidine-2-carbonitrile]: below 15 nM; `COc1cnc(-c2ccc3nc(-c4cccnc4N)n(-c4ccc(CN5CCC(Nc6ccnc(C#N)n6)CC5)cc4)c3n2)nc1` [Example 581, 4-((1-(4-(2-(2-Aminopyridin-3-yl)-5-(5-methoxypyrimidin-2-yl)-3H-imidazo[4,5-b]pyridin-3-yl)benzyl)piperidin-4-yl)amino)pyrimidine-2-carbonitrile]: 15 to 60 nM.

For the molecule `Cc1cnc(-c2ccc3nc(-c4cccnc4N)n(-c4ccc(CN5CCC(Nc6ccnc(C#N)n6)CC5)cc4)c3n2)cn1` [Example 582, 4-((1-(4-(2-(2-Aminopyridin-3-yl)-5-(5-methylpyrazin-2-yl)-3H-imidazo[4,5-b]pyridin-3-yl)benzyl)piperidin-4-yl)amino)pyrimidine-2-carbonitrile], the IC50 is below 15 nM. Turning to `COc1cnc(-c2ccc3nc(-c4cccnc4N)n(-c4ccc(CN5CCC(Nc6ccnc(C#N)n6)CC5)cc4)c3n2)cn1` [Example 583, 4-((1-(4-(2-(2-Aminopyridin-3-yl)-5-(5-methoxypyrazin-2-yl)-3H-imidazo[4,5-b]pyridin-3-yl)benzyl)piperidin-4-yl)amino)pyrimidine-2-carbonitrile], the IC50 is below 15 nM.

With `CCOc1ccc(-c2ccc3nc(-c4cccnc4N)n(-c4ccc(CN5CCC(Nc6ccnc(C#N)n6)CC5)cc4)c3n2)cn1` [Example 584, 4-((1-(4-(2-(2-Aminopyridin-3-yl)-5-(6-ethoxypyridin-3-yl)-3H-imidazo[4,5-b]pyridin-3-yl)benzyl)piperidin-4-yl)amino)pyrimidine-2-carbonitrile], the IC50 is below 15 nM. Next, `N#Cc1nccc(NC2CCN(Cc3ccc(-n4c(-c5cccnc5N)nc5ccc(-c6ccc(OC7CC7)cn6)nc54)cc3)CC2)n1` [Example 585, 4-((1-(4-(2-(2-Aminopyridin-3-yl)-5-(5-cyclopropoxypyridin-2-yl)-3H-imidazo[4,5-b]pyridin-3-yl)benzyl)piperidin-4-yl)amino)pyrimidine-2-carbonitrile]: below 15 nM. Next, `CC(C)Oc1ccc(-c2ccc3nc(-c4cccnc4N)n(-c4ccc(CN5CCC(Nc6ccnc(C#N)n6)CC5)cc4)c3n2)nc1` [Example 586, 4-((1-(4-(2-(2-Aminopyridin-3-yl)-5-(5-isopropoxypyridin-2-yl)-3H-imidazo[4,5-b]pyridin-3-yl)benzyl)piperidin-4-yl)amino)pyrimidine-2-carbonitrile]: below 15 nM. Next, `N#Cc1nccc(NC2CCN(Cc3ccc(-n4c(-c5cccnc5N)nc5ccc(-c6ccc(C7CC7)nc6)nc54)cc3)CC2)n1` [Example 587, 4-((1-(4-(2-(2-Aminopyridin-3-yl)-5-(6-cyclopropylpyridin-3-yl)-3H-imidazo[4,5-b]pyridin-3-yl)benzyl)piperidin-4-yl)amino)pyrimidine-2-carbonitrile]: below 15 nM; `Cc1nncn1-c1ccc2nc(-c3cccnc3N)n(-c3ccc(CN4CCC(Nc5ccnc(C#N)n5)CC4)cc3)c2n1` [Example 588, 4-((1-(4-(2-(2-aminopyridin-3-yl)-5-(3-methyl-4H-1,2,4-triazol-4-yl)-3H-imidazo[4,5-b]pyridin-3-yl)benzyl)piperidin-4-yl)amino)pyrimidine-2-carbonitrile]: 15 to 60 nM; `Cc1ncn(-c2ccc3nc(-c4cccnc4N)n(-c4ccc(CN5CCC(Nc6ccnc(C#N)n6)CC5)cc4)c3n2)n1` [Example 589, 4-((1-(4-(2-(2-aminopyridin-3-yl)-5-(3-methyl-1H-1,2,4-triazol-1-yl)-3H-imidazo[4,5-b]pyridin-3-yl)benzyl)piperidin-4-yl)amino)pyrimidine-2-carbonitrile]: 15 to 60 nM. With `N#Cc1nccc(NC2CCN(Cc3ccc(-n4c(-c5cccnc5N)nc5ccc(-n6cncn6)nc54)cc3)CC2)n1` [Example 590, 4-((1-(4-(2-(2-Aminopyridin-3-yl)-5-(1H-1,2,4-triazol-1-yl)-3H-imidazo[4,5-b]pyridin-3-yl)benzyl)piperidin-4-yl)amino)pyrimidine-2-carbonitrile], the IC50 is below 15 nM. As to `N#Cc1nccc(NC2CCN(Cc3ccc(-n4c(-c5cccnc5N)nc5ccc(-n6ccnn6)nc54)cc3)CC2)n1` [Example 591, 4-((1-(4-(2-(2-Aminopyridin-3-yl)-5-(1H-1,2,3-triazol-1-yl)-3H-imidazo[4,5-b]pyridin-3-yl)benzyl)piperidin-4-yl)amino)pyrimidine-2-carbonitrile], the IC50 is below 15 nM. As for `N#Cc1nccc(NC2CCN(Cc3ccc(-n4c(-c5cccnc5N)nc5ccc(-n6nccn6)nc54)cc3)CC2)n1` [Example 592, 4-((1-(4-(2-(2-Aminopyridin-3-yl)-5-(2H-1,2,3-triazol-2-yl)-3H-imidazo[4,5-b]pyridin-3-yl)benzyl)piperidin-4-yl)amino)pyrimidine-2-carbonitrile], the IC50 was below 15 nM.

As for `Cc1cn(-c2ccc3nc(-c4cccnc4N)n(-c4ccc(CN5CCC(Nc6ccnc(C#N)n6)CC5)cc4)c3n2)nn1` [Example 593, 4-((1-(4-(2-(2-Aminopyridin-3-yl)-5-(4-methyl-1H-1,2,3-triazol-1-yl)-3H-imidazo[4,5-b]pyridin-3-yl)benzyl)piperidin-4-yl)amino)pyrimidine-2-carbonitrile], the half-maximal inhibitory concentration (IC50) was below 15 nM. Next, `N#Cc1nccc(NC2CCN(Cc3ccc(-n4c(-c5cccnc5N)nc5ccc(-c6cocn6)nc54)cc3)CC2)n1` [Example 594, 4-((1-(4-(2-(2-Aminopyridin-3-yl)-5-(oxazol-4-yl)-3H-imidazo[4,5-b]pyridin-3-yl)benzyl)piperidin-4-yl)amino)pyrimidine-2-carbonitrile]: below 15 nM; `N#Cc1nccc(NC2CCN(Cc3ccc(-n4c(-c5cccnc5N)nc5ccc(-c6cnccc6F)nc54)cc3)CC2)n1` [Example 595, 4-((1-(4-(2-(2-Aminopyridin-3-yl)-5-(4-fluoropyridin-3-yl)-3H-imidazo[4,5-b]pyridin-3-yl)benzyl)piperidin-4-yl)amino)pyrimidine-2-carbonitrile]: below 15 nM; `Cc1ccnc(-c2ccc3nc(-c4cccnc4N)n(-c4ccc(CN5CCC(Nc6ccnc(C#N)n6)CC5)cc4)c3n2)c1` [Example 596, 4-((1-(4-(2-(2-Aminopyridin-3-yl)-5-(4-methylpyridin-2-yl)-3H-imidazo[4,5-b]pyridin-3-yl)benzyl)piperidin-4-yl)amino)pyrimidine-2-carbonitrile]: below 15 nM. Next, `[2H]c1nc(OC([2H])([2H])[2H])ccc1-c1ccc2nc(-c3cccnc3N)n(-c3ccc(CN4CCC(Nc5ccnc(C#N)n5)CC4)cc3)c2n1` [Example 597, 4-((1-(4-(2-(2-aminopyridin-3-yl)-5-(6-(methoxy-d3)pyridin-3-yl-2-d)-3H-imidazo[4,5-b]pyridin-3-yl)benzyl)piperidin-4-yl)amino)pyrimidine-2-carbonitrile]: below 15 nM; `[2H]C([2H])([2H])Oc1ccc(-c2ccc3nc(-c4cccnc4N)n(-c4ccc(CN5CCC(Nc6ccnc(C#N)n6)CC5)cc4)c3n2)cn1` [Example 598, 4-((1-(4-(2-(2-aminopyridin-3-yl)-5-(6-(methoxy-d3)pyridin-3-yl)-3H-imidazo[4,5-b]pyridin-3-yl)benzyl)piperidin-4-yl)amino)pyrimidine-2-carbonitrile]: below 15 nM. With `N#Cc1nccc(NC2CCN(Cc3ccc(-n4c(-c5cccnc5N)nc5cc(C#N)c(O)nc54)cc3)CC2)n1` [Example 599, 2-(2-Aminopyridin-3-yl)-3-(4-((4-((2-cyanopyrimidin-4-yl)amino)piperidin-1-yl)methyl)phenyl)-5-hydroxy-3H-imidazo[4,5-b]pyridine-6-carbonitrile] the figure was 600 to 10000 nM.
